We go through 2 molecules from paper PMC7509637 (Advanced Science, 2020).

One data set concerns adult zebrafish. Description: Behavioral pathology of adult zebrafish (swimming). Type of data set: in vivo, zebrafish (AB, Danio rerio). The procedure: Adult zebrafish (10 months) were employed for the study. Prior to microinjection, adult zebrafish were anesthetized by placing them in a beaker filled with ice‐chilled tricaine (0.01% in Holtfreter's buffer) for 20 s. The samples of Aβ alone and Aβ with FapCS or bacterial biofilm fragments were injected to the cerebroventricular space of adult fish with a 1 µL Hamilton glass syringe. The concentration of the Aβ peptide was 40 × 10^−6 M (in PBS, pH 7.4) while FapCS or biofilm fragments were included at a 10:1 ratio (Aβ:FapCS or biofilm fragments). The needle penetrated between left and right telencephalon for not more than 1 mm and injection volume was 1 µL. The syringe was washed with ethanol and PBS in between the injections. The injections were made under a stereomicroscope and fish were held in place with forceps. After microinjection, the fish was placed back in the water tank for recovery.
The behavioral pathology of the adult fish was observed after 4 d and 2 weeks of microinjection. The behavioral pathology of movement frequency and traveled distance was recorded with a zebrabox (Viewpoint) in a 1 L swimming tank. For cognitive function test, the tank was hypothetically divided into two parts of arena 1 and arena 2, and arena 2 was labeled by pasting a red paper at the bottom of the tank. The behavior of the untreated fish was recorded as positive control, in both arenas. Then fish from each sample were trained to avoid swimming in arena 2 by shocking with a 9 V battery electrodes, whenever the fish swim into arena 2. The fish were allowed to familiarize with the tank for 30 min and then trained for 20 min. After training, the swimming behavior of the fish was recorded in whole tank and then analyzed for arena 1 versus arena 2 with software EthnoVision X1.
The observations were made for 1 min with three fish per samples. The measurements were made three times in a day and then averaged together. […] Movement trajectories were also recorded with the instrument's camera.

The next data set concerns adult zebrafish brain. Put plainly: IHC for Aβ deposition in brain of adult zebrafish. It is filed as in vivo, zebrafish (AB, Danio rerio). The settings on record: two days postinjection (so in the source).
The target of a further data set is T1, Aβ (Homo sapiens, UniProt P05067).
T1 construct: purchased Anaspec Inc
Description: ThT assay of Aβ with P. aeruginosa biofilm fragments. It is filed as biochemical. The note with it: Aβ 50 × 10^−6 M ± biofilm fragments 5 × 10^−6 M (protein content), 37 °C, Figure S14. As for the experimental part:
P. aeruginosa biofilm fragments were generated by incubating fresh subcultures of bacteria (wild‐type reference strain PAO1) in cation‐adjusted Mueller‐Hinton broth (CAMHB) overnight in a 96‐well plate. After 48 h of incubation, the planktonic bacteria were pipetted out from the culture and replaced with fresh PBS (pH 7.4). The surface pellicle biofilm and ring biofilm attached to the well walls were scooped out and dispersed in PBS. The separated biofilm chunks were purified from the embodied bacteria by vortexing (10 min) with 20 µm glass beads and then repeated centrifugal washing (3 min, 2000 g) with PBS (pH 7.4). The biofilm containing supernatant was collected, concentrated, and adjusted to the concentration of 5 mg mL^−1 in deionized water. The concentration was adjusted with respect to the protein contents of biofilm via the BCA assay. […]
Aβ (Anaspec Inc., purity ≥ 95%) was dissolved in 100 µL of hexafluoro‐2‐propanol (HFIP) and incubated at room temperature for 3 h. […] The ThT fluorescence (excitation: 445 nm/ emission: 485 nm) was recorded at specified time intervals for 50 h. Kinetic parameters (rate constant k, half‐life t 1/2 and lag‐time) were calculated as described.^[ ^94 ^] Briefly, kinetic curves were fitted to a sigmoidal curve =y0+ymax−y0/1+e^−(t−t1/2)k , where y 0 and y max are initial and final ThT fluorescence values, allowing us to calculate lag time = t 1/2 − 2/k.

For the next data set, the system named is Aβ amyloid fibrils. Put plainly: STED microscopy of FapCS with Aβ fibrils. The settings on record: FapCS labeled with Alexa 647, ThT-labeled Aβ fibrils, 12 h. The procedure: STED microscopy was employed to study the interaction of FapCS with Aβ. FapCS was labeled with Alexa 647 NHS ester via carbodiimide coupling reaction (1:1 molar ratio) in PBS (pH 8) for a duration of 5 h. The labeled fragments were purified via centrifugal filters ([…]). Labeled FapCS was incubated with Aβ at the same molar ratio as for the ThT assay. After 12 h of incubation, the FapCS‐seeded Aβ fibrils were incubated with ThT dye (100 × 10^−6 M) for 30 min to label the Aβ backbone and then purified via centrifugal filters ([…]). A drop of 20 µL of the sample was placed on a poly‐L‐lysine coated coverslip, flipped on a glass slide and then imaged under STED microscope. Alexa and ThT fluorescence were imaged under the excitations of 647 and 488 nm and emissions of 665 and 525 nm, respectively.

[1] abbreviates: 2 weeks postinjection, Aβ 1 µL, 40 × 10^−6 M, n = 3 per group, three groups.

“Also recorded” adds a separate entry of the source.

Description for adult zebrafish brain: Adult zebrafish (10 months) were employed for the study. Prior to microinjection, adult zebrafish were anesthetized by placing them in a beaker filled with ice‐chilled tricaine (0.01% in Holtfreter's buffer) for 20 s. […] The needle penetrated between left and right telencephalon for not more than 1 mm and injection volume was 1 µL. The syringe was washed with ethanol and PBS in between the injections. The injections were made under a stereomicroscope and fish were held in place with forceps. After microinjection, the fish was placed back in the water tank for recovery.
The head of the fish was separated at pectoral fin point with a sharp blade and fixed in paraformaldehyde as described in the “Animal husbandry and ethics statement” section. The fixed heads were dehydrated by dipping in gradual concentration of ethanol, i.e., 20%, 40%, 60%, 80%, and 100% with 10 min at each step. The heads were treated with 20% sucrose overnight, mounted with Tissue Trek OCT mounting medium at −20 °C. The heads were then sectioned into 20 × 10^−6 M thick section with a cryostat. The sections were mounted on a gelatinized glass slide and immunostained with antibodies. The sections were dried, washed thrice in PBS (pH 7.4), and TritonX‐100 (0.05% in PBS) for 5 min each. […] The sections were imaged by a fluorescence microscope and fluorescence intensities were measured from the images with Fiji ImageJ analysis.

In the data set with adult zebrafish (setting [1]), amyloid beta [Aβ] had a distance traveled of 57 ± 6.9 cm per min and a movement frequency of 6 ± 2 per min. Moreover, the “swimming behavior (in words)” value with adult zebrafish (4 d postinjection) is recorded as “did not produce significant difference in the swimming behavior compared to the buffer control”. For the same molecule, the “Aβ deposition in brain (in words)” value with adult zebrafish brain is given as “did not render any deposition in the fish brain”. For the same molecule, the lag time in the data set with Aβ amounted to 23 h.

B1: FapCS: FapC seeds obtained by sonication of mature FapC fibrils (P. aeruginosa) (protein)
chain: GNEGGWHPPKPNPQSNNKGGATALVVDTQQNYNNKVSNFGTLNNASVSGSIKDASGNVGVNVAAGDNNQQANAAALASADASFVFGTATASTSVLQSGYGNTLNNYSNPNTASLSNSANNVSGNLGVNVAAGNFNQQKNDLAAAVSNGQYSTAGSAASQTSTGNTTVNSANYAYGGTYVSLKLNADGSYKGTSDQIGDVYLDTWEGQTHPGGSNTGHIDVDSQAQGAKDLNHDGGAFAFKEKGDVDLKGTVSGFIPAIVGFKTPVTNNASLSNSLQNVSGNVGVNIAAGGGNQQSNSLSIAAGCSSCPAGGESLGF
For B1, the “interaction with Aβ fibrils by STED” value with Aβ amyloid fibrils was “adsorption of FapCS (labeled with Alexa 647) onto Aβ amyloid fibrils; also recorded: intercalation of FapCS inside the Aβ fibrils; also recorded: adsorbed onto or integrated into Aβ fibrils”.
